Laboratory results taken from patent US20100144733A1, “Compounds, compositions and methods comprising heteroaromatic derivatives” (Institute for OneWorld Health, priority 2008, published 2010).

Molecular target: T1, CFTR (Homo sapiens, UniProt P13569)
T1 construct: endogenous in cells; host or cells: T84 human colonic cells (ECACC)
Experiment: T84 assay (FLIPR membrane potential dye, forskolin/IBMX-stimulated CFTR channel activity)
Format: cell-based
Conditions: oxadiazole-containing compounds (a series), average of at least 2 runs unless annotated n = 1, read-out: IC50
In short: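 Fluorescence from a membrane potential dye in T84 monolayers (HBSS with 10 mM Hepes) is followed each second for 150 s. Cells are exposed to test compound during the 45 min dye loading, then challenged with forskolin (10 μM) and IBMX (100 μM) to open CFTR. Inhibitors suppress the depolarization-driven fluorescence increase.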

T1 sequence (P13569 whole entry): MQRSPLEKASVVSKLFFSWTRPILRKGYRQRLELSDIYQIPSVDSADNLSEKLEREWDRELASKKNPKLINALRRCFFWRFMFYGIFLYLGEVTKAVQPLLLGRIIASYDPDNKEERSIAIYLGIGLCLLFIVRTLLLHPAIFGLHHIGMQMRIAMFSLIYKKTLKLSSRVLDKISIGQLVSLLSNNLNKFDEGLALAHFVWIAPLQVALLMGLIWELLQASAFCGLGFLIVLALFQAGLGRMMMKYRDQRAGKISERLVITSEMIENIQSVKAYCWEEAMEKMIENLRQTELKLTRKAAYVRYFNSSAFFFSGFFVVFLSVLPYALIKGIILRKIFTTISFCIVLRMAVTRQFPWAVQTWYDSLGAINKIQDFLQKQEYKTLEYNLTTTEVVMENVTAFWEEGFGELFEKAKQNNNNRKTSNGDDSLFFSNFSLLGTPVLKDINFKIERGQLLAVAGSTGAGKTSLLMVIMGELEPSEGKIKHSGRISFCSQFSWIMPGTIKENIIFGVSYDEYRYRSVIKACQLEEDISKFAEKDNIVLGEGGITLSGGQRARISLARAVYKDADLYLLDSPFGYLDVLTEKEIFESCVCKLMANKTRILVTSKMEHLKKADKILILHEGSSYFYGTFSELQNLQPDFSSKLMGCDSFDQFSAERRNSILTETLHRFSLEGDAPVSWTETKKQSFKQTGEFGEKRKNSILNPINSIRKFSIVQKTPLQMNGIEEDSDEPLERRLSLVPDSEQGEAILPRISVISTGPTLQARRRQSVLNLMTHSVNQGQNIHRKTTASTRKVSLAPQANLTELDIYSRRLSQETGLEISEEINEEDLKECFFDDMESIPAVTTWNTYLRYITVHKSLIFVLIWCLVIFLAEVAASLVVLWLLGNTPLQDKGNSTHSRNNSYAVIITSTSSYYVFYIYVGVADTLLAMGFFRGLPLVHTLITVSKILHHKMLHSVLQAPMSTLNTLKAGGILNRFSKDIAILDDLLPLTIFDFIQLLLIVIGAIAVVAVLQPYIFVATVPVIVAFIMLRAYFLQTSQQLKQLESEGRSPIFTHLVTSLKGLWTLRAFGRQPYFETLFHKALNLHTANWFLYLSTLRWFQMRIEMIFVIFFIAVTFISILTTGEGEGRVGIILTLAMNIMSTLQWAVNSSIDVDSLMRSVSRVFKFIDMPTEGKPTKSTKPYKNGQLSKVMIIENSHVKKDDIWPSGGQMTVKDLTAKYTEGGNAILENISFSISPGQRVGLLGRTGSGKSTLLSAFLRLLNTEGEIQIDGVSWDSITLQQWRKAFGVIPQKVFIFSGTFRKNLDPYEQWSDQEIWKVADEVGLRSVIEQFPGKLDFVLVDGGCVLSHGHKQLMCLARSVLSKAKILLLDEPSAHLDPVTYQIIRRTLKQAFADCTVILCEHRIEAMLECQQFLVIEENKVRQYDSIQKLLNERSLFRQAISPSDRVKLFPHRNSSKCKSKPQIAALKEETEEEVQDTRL

Row | Compound | IC50 [µM]
1 | O=C(c1nc(-c2cc(Cl)c(O)c(Cl)c2)no1)N(Cc1cccnc1)Cc1cccnc1 [162a, 3-(3,5-dichloro-4-hydroxyphenyl)-N,N-bis(pyridin-3-ylmethyl)-1,2,4-oxadiazole-5-carboxamide] | 9.24
2 | O=C(NCc1cccc(OC(F)F)c1)c1noc(-c2cc(Cl)c(O)c(Cl)c2)n1 [163a, 5-(3,5-dichloro-4-hydroxyphenyl)-N-(3-(difluoromethoxy)benzyl)-1,2,4-oxadiazole-3-carboxamide] | 11.5
3 | CC(C)(C)C(=O)CN(Cc1cccc(OC(F)(F)F)c1)C(=O)c1nc(-c2cc(Cl)c(O)c(Cl)c2)no1 [164a, 3-(3,5-dichloro-4-hydroxyphenyl)-N-(3,3-dimethyl-2-oxobutyl)-N-(3-(trifluoromethoxy)benzyl)-1,2,4-oxadiazole-5-carboxamide] | 12.9
4 | CC(C)(C)C(=O)CN(Cc1ccc(Oc2ccccc2)cc1)C(=O)c1nc(-c2cc(Cl)c(O)c(Cl)c2)no1 [165a, 3-(3,5-dichloro-4-hydroxyphenyl)-N-(3,3-dimethyl-2-oxobutyl)-N-(4-phenoxybenzyl)-1,2,4-oxadiazole-5-carboxamide] | 11.5
5 | O=C(NCc1ccc(N2CCCCC2)cc1)c1nc(-c2cc(Cl)c(O)c(Cl)c2)no1 [166a, 3-(3,5-dichloro-4-hydroxyphenyl)-N-(4-(piperidin-1-yl)benzyl)-1,2,4-oxadiazole-5-carboxamide] | 6.21
6 | O=C(c1nc(-c2cc(Cl)c(O)c(Cl)c2)no1)N(Cc1ccccc1)Cc1cccnc1 [167a, N-benzyl-3-(3,5-dichloro-4-hydroxyphenyl)-N-(pyridin-3-ylmethyl)-1,2,4-oxadiazole-5-carboxamide] | 9.61
7 | O=C(c1nc(-c2cc(Cl)c(O)c(Cl)c2)no1)N(Cc1ccc(Oc2ccccc2)cc1)Cc1cccnc1 [168a, 3-(3,5-dichloro-4-hydroxyphenyl)-N-(4-phenoxybenzyl)-N-(pyridin-3-ylmethyl)-1,2,4-oxadiazole-5-carboxamide] | 2.11
8 | C=CCN(Cc1cccc(OC(F)(F)F)c1)C(=O)c1nc(-c2cc(Cl)c(O)c(Cl)c2)no1 [169a, N-allyl-3-(3,5-dichloro-4-hydroxyphenyl)-N-(3-(trifluoromethoxy)benzyl)-1,2,4-oxadiazole-5-carboxamide] | 2.95
9 | C=CCN(Cc1ccc(F)c(F)c1)C(=O)c1nc(-c2cc(Cl)c(O)c(Cl)c2)no1 [170a, N-allyl-3-(3,5-dichloro-4-hydroxyphenyl)-N-(3,4-difluorobenzyl)-1,2,4-oxadiazole-5-carboxamide] | 3.62
10 | O=C(NCc1ccc(Oc2ccc(F)cc2)cc1)c1nc(-c2cc(Cl)c(O)c(Cl)c2)no1 [171a, 3-(3,5-dichloro-4-hydroxyphenyl)-N-(4-(4-fluorophenoxy)benzyl)-1,2,4-oxadiazole-5-carboxamide] | 7.44
11 | Cc1cncc(Oc2cccc(CN(C)C(=O)c3nc(-c4cc(Cl)c(O)c(Cl)c4)no3)c2)n1 [172a, 3-(3,5-dichloro-4-hydroxyphenyl)-N-methyl-N-(3-(6-methylpyrazin-2-yloxy)benzyl)-1,2,4-oxadiazole-5-carboxamide] | 4.41
12 | CN(Cc1ccc(Oc2ccccn2)cc1)C(=O)c1nc(-c2cc(Cl)c(O)c(Cl)c2)no1 [173a, 3-(3,5-dichloro-4-hydroxyphenyl)-N-methyl-N-(4-(pyridin-2-yloxy)benzyl)-1,2,4-oxadiazole-5-carboxamide] | 12.4
13 | CN(Cc1ccc(-c2ccc(C(F)(F)F)cn2)cc1)C(=O)c1nc(-c2cc(Cl)c(O)c(Cl)c2)no1 [174a, 3-(3,5-dichloro-4-hydroxyphenyl)-N-methyl-N-(4-(5-(trifluoromethyl)pyridin-2-yl)benzyl)-1,2,4-oxadiazole-5-carboxamide] | 8.07
14 | CN(Cc1cccc(-c2ccncc2)c1)C(=O)c1nc(-c2cc(Cl)c(O)c(Cl)c2)no1 [175a, 3-(3,5-dichloro-4-hydroxyphenyl)-N-methyl-N-(3-(pyridin-4-yl)benzyl)-1,2,4-oxadiazole-5-carboxamide] | 6.78
